The results in this text go back to BindingDB's records for doi:10.1016/j.ejmech.2017.11.048 (University of New Mexico, 2018).

This assay deals with T1, Nuclear factor erythroid 2-related factor 2 (Homo sapiens, UniProt Q16236).
T1 sequence (Q16236 whole entry): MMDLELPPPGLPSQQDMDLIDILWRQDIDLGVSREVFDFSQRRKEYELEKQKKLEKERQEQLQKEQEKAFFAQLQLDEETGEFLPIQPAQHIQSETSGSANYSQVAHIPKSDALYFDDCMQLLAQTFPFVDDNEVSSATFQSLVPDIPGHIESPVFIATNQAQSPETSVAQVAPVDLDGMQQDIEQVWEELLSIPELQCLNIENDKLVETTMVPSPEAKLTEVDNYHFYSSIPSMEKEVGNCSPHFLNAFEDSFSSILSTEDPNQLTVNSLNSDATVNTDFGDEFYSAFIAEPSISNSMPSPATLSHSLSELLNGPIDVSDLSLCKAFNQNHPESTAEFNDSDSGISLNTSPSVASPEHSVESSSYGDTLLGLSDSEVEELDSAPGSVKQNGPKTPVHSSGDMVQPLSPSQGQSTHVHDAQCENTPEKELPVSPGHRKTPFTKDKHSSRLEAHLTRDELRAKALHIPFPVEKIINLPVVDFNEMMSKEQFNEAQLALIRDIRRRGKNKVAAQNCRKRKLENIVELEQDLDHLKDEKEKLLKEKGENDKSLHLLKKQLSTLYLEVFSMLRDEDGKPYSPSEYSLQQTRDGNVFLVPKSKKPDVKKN
The assay is described as follows: Activation of Nrf2 (unknown origin) expressed in human HepG2 cells after 5 hrs by ARE-driven luciferase reporter gene assay. (In a reporter assay the amount or activity of a reporter protein is the signal.)

As usually defined, the EC50 is the concentration that produces a half-maximal response. A low value points to an effect from little substance. As to `Cc1ccc(C(=O)/C=C/c2ccccc2)c(C)c1`, a half-maximal effect (EC50) was put at 21.1 µM.

Regarding `COc1cc(/C=C2\CCC/C(=C\c3cc(OC)cc(OC)c3)C2=O)cc(OC)c1`, the EC50 worked out at 5.3 µM.

`COc1cc(/C=C/C(=O)/C=C/c2ccc(O)c(OC)c2)ccc1O` [(1E,4E)-1,5-Bis-(4-hydroxy-3-methoxy-phenyl)-penta-1,4-dien-3-one] came in with an EC50 of 9.9 µM. This EC50 is about 1.9-fold higher than that of the compound before.

In turn, `COc1cc(/C=C/C(=O)CC(=O)/C=C/c2ccc(O)c(OC)c2)ccc1O` [CHEBI:3962] came in with an EC50 of 21 µM. This EC50 lies about 2.1-fold higher than the previous one.

In turn, `COc1cc(OC)c(OC)cc1/C=C/C(=O)/C=C/c1cc(OC)c(OC)cc1OC` [Go-Y021] returned an EC50 of 1.32 µM.

Consider `O=C(/C=C/c1ccccc1O)/C=C/c1ccccc1O` [US9187397, 20q], for which the concentration giving a half-maximal response (EC50) worked out at 3.3 µM.
